{"source": "patent US12331051B2", "about": "(priority 2021, dated 2025)", "key": {"[1]": {"molecular_target": "ADRb2 (β2 adrenergic receptor) (Homo sapiens, UniProt P07550)", "sequence (P07550 whole entry)": "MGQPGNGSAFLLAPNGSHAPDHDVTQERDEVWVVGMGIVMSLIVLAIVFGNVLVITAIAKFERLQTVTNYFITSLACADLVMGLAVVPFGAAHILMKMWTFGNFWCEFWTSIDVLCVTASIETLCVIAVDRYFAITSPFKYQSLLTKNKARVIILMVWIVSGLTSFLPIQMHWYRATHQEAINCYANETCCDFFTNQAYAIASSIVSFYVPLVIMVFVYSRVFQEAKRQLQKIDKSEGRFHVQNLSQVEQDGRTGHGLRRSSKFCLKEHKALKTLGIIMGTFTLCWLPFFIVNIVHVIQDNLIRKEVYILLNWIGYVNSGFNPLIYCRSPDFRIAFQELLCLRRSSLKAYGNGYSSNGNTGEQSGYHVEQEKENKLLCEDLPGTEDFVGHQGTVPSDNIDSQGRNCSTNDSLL", "experiment": "BRET-based G protein dissociation assay", "type": "cell-based"}, "[2]": {"tested_on": "cultured primary rat neurons", "experiment": "Cell viability, Neurite Outgrowth Staining Kit", "type": "cell-based", "details": "DIV 6, all tested concentrations", "method": "The ability of the “E559 polymorph” to induce neural plasticity was evaluated in vitro. In vitro dendritogenesis and spinogenesis assays were conducted using primary rat embryonic cortical neurons. Briefly, cultured primary cortical neurons (rat) were treated at day in vitro (DIV) 3 for 3 hours with increasing concentrations (1, 10 and 100 nM, 1 and […]) of the “E559 polymorph” and morphological changes in dendritic arbor complexity (dendritogenesis) were assessed at DIV6 by immunofluorescent staining of fixed neurons with microtubule-associated protein 2 (MAP2, a microtubule marker), F-actin (cytoskeletal marker), and phalloidin (actin filament marker) followed by fluorescent microscopy and Sholl analysis of neurons' images. […] The spine density assessments (spinogenesis) were made on DIV 18. The cell viability assessments were made on DIV 6 by using the Neurite Outgrowth Staining Kit which includes fluorescent probes for dead and live neuronal cells. Ketamine was used as a comparator and positive control. Ketamine is known to induce dendritogenesis and its effects on synaptic plasticity are believed to mediate its antidepressant effects (Aguilar-Valles et al., Nature, 2021, 590, p315-319). Representative images of MAP2 stained rat cortical neurons treated with vehicle (no drug control) or with “E559 polymorph” is shown in FIG. 18A."}, "[3]": {"tested_on": "5-HT1 receptor subtypes: 5-HT1A, 1B, 1D, 1E, and 1F", "type": "cell-based, human", "details": "FIG. 15, FIG. 16A/B; listed as E559 polymorph"}, "[4]": {"tested_on": "rat spared nerve injury (SNI) model", "experiment": "Spared nerve injury (SNI) model, von Frey mechanical allodynia", "type": "in vivo", "method": "To evaluate the function the “E559 polymorph” in neuropathic pain, mechanical allodynia test was evaluated by von Frey filament in rat spared nerve injury (SNI) model before and after before and after treatment with the “E559 polymorph”. The SNI model and von Frey filament testing were conducted as previously described (Decosterd & Woolf. Pain, 2000, v87, p149-158). Briefly, Animals with a pain threshold of <15 g, assessed using the Von Frey mechanical allodynia testing, were randomly placed in experimental groups. Each rat group consisted of 10 male rats. On day 7 post-surgery treatment was initiated. […]\nThe pain response (Von Frey testing) was evaluated on day 0 pre-surgery (labelled as Baseline in FIG. 27), on day 6 post-surgery (labelled as Day 6 Pre grouping in FIG. 27), and at 2, 4, 6, and 24 hours after a single oral dose of either vehicle, or the “E559 polymorph” at 0.3, 1, 3, or 10 mg/kg (labelled as BETR-001 in FIG. 27), or gabapentin at 150 mg/kg. […]\nRat groups were treated (via oral administration) with either vehicle, or the “E559 polymorph” at 20 mg/kg (labelled as BETR-001 in FIG. 28), or gabapentin at 150 mg/kg. […] The pain response (Von Frey testing) was evaluated on day 0 pre-surgery (labelled as Baseline in FIG. 28), on day 6 post-surgery (labelled as Day 6 Pre grouping in FIG. 28), and at 2 hours post-treatment given on days 7, 11, and 15 post-surgery. […]"}}, "note": "Entries after “also recorded” stand apart in the source; their conditions may differ."}
{"smiles": "CCN(CC)C(=O)[C@@H]1C=C2c3cccc4[nH]c(Br)c(c34)C[C@H]2N(C)C1", "note": "[E559, (5R, 8R)-2-Bromo-9,10-didehydro-N,N-diethyl-6-methylergoline-8-carboxamide hemi-D-tartrate]", "values": [{"measurement": "EC50", "setting": "[1]", "value": 0.00426, "unit": "µM"}, {"measurement": "Kb", "setting": "[1]", "value": 0.0176, "unit": "µM"}, {"measurement": "viability of cultured primary rat neurons (cytotoxic activity)", "setting": "[2]", "value": "no cytotoxic activity was observed at all tested concentrations"}, {"measurement": "functional activity at 5-HT1 receptor subtypes", "setting": "[3]", "value": "moderate to potent agonist across all the 5-HT1 receptor subtypes; also recorded: exhibits the greatest potency (agonism) at 5-HT1F and 5-HT1D receptors"}, {"measurement": "inhibition of mechanical allodynia, repeated dosing", "setting": "[4]; oral 20 mg/kg on days 7, 9, 11, 13 and 15 post-surgery", "value": "enhanced the inhibition effect on mechanism allodynia to levels comparable to the gabapentin positive control"}, {"measurement": "inhibition of neuropathic pain (von Frey), single dose", "setting": "[4]; single oral dose 0.3, 1, 3 or 10 mg/kg on day 7 post-surgery, 2 and 4 hours post administration", "value": "significant dose-dependent inhibition of neuropathic pain"}]}
